US7235580B2, “Mitotic kinesin inhibitors” (Merck & Co., Inc., priority 2002, dated 2007)

biological target: T1, human KSP motor domain (KSP(367H)) (Homo sapiens, UniProt P52732); experiment: Kinesin ATPase In Vitro Assay; assay type: biochemical; settings: kinesin motor domain with microtubules, 1 mM ATP, 23° C.; free phosphate by quinaldine red/ammonium molybdate
T1 construct: were used to amplify the motor domain and the neck linker region; made in house; host or cells: E. coli BL21 (DE3), pRSETa
T1 sequence (P52732 18-359 limits assumed): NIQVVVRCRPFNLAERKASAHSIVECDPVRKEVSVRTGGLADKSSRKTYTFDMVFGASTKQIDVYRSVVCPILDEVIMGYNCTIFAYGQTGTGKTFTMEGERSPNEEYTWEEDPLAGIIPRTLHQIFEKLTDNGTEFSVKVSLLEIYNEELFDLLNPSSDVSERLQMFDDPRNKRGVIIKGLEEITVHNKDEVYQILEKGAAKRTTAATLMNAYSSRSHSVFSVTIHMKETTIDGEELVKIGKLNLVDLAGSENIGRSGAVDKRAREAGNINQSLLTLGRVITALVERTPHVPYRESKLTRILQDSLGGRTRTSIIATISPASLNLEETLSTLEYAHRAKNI
Text: I. Kinesin ATPase In Vitro Assay
Cloning and Expression of Human Poly-histidine Tagged KSP Motor Domain (KSP(367H))
Plasmids for the expression of the human KSP motor domain construct were cloned by PCR using a pBluescript full length human KSP construct (Blangy et al., Cell, vol. 83, pp 1159-1169, 1995) as a template. The N-terminal primer 5′-[…] (SEQ.ID.NO.: 1) and the C-terminal primer 5′-[…] […] (SEQ.ID.NO.: 2) were used to amplify the motor domain and the neck linker region. The PCR products were digested with AseI and XhoI, ligated into the NdeI/XhoI digestion product of pRSETa (Invitrogen) and transformed into E. coli BL21 (DE3).
Cells were grown at 37° C. to an OD600 of 0.5. After cooling the culture to room temperature expression of KSP was induced with 100 μM IPTG and incubation was continued overnight. Cells were pelleted by centrifugation and washed once with ice-cold PBS. Pellets were flash-frozen and stored −80° C.
Cell pellets were thawed on ice and resuspended in lysis buffer (50 mM K-HEPES, pH 8.0, 250 mM KCl, 0.1% Tween, 10 mM imidazole, 0.5 mM Mg-ATP, 1 mM PMSF, 2 mM benzimidine, 1× complete protease inhibitor cocktail (Roche)). Cell suspensions were incubated with 1 mg/ml lysozyme and 5 mM β-mercaptoethanol on ice for 10 minutes, followed by sonication (3×30 sec). All subsequent procedures were performed at 4° C. Lysates were centrifuged at 40,000×g for 40 minutes. Supernatants were diluted and loaded onto an SP Sepharose column (Pharmacia, 5 ml cartridge) in buffer A (50 mM K-HEPES, pH 6.8, 1 mM MgCl2, 1 mM EGTA, 10 μM Mg-ATP, 1 mM DTT) and eluted with a 0 to 750 mM KCl gradient in buffer A. Fractions containing KSP were pooled and incubated with Ni-NTA resin (Qiagen) for one hour. The resin was washed three times with buffer B (Lysis buffer minus PMSP and protease inhibitor cocktail), followed by three 15-minute incubations and washes with buffer B. Finally, the resin was incubated and washed for 15 minutes three times with buffer C (same as buffer B except for pH 6.0) and poured into a column. KSP was eluted with elution buffer (identical to buffer B except for 150 mM KCl and 250 mM imidazole). KSP-containing fractions were pooled, made 10% in sucrose, and stored at −80° C.
Microtubules are prepared from tubulin isolated from bovine brain. Purified tubulin (>97% MAP-free) at 1 mg/ml is polymerized at 37° C. in the presence of 10 μM paclitaxel, 1 mM DTT, 1 mM GTP in BRB80 buffer (80 mM K-PIPES, 1 mM EGTA, 1 mM MgCl2 at pH 6.8). The resulting microtubules are separated from non-polymerized tubulin by ultracentrifugation and removal of the supernatant. The pellet, containing the microtubules, is gently resuspended in 10 μM paclitaxel, 1 mM DTT, 50 μg/ml ampicillin, and 5 μg/ml chloramphenicol in BRB80.
The kinesin motor domain is incubated with microtubules, 1 mM ATP (1:1 MgCl2: Na-ATP), and compound at 23° C. in buffer containing 80 mM K-HEPES (pH 7.0), 1 mM EGTA, 1 mM DTT, 1 mM MgCl2, and 50 mM KCl. The reaction is terminated by a 2-10 fold dilution with a final buffer composition of 80 mM HEPES and 50 mM EDTA. Free phosphate from the ATP hydrolysis reaction is measured via a quinaldine red/ammonium molybdate assay by adding 150 μl of quench C buffer containing a 2:1 ratio of quench A:quench B. Quench A contains 0.1 mg/ml quinaldine red and 0.14% polyvinyl alcohol; quench B contains 12.3 mM ammonium molybdate tetrahydrate in 1.15 M sulfuric acid. The reaction is incubated for 10 minutes at 23° C., and the absorbance of the phospho-molybdate complex is measured at 540 nm.

| Structure (SMILES) | IC50 |
| --- | --- |
| CN(C(=O)N1CC(c2cc(F)ccc2F)=C[C@@]1(CO)c1ccccc1)C1CCN(CCF)CC1 [Compound 12-1, (2S)-4-(2,5-difluorophenyl)-N-[1-(2-fluoroethyl)piperidin-4-yl]-2-(hydroxymethyl)-N-methyl-2-phenyl-2,5-dihydro-1H-pyrrole-1-carboxamide] | ≤ 50 µM |
| CN(C)C(=O)N1CC(c2cc(F)ccc2F)=CC1(CCC(=O)NN)c1ccccc1 (centres unmarked) [Compound 25-1, 4-(2,5-difluorophenyl)-2-(3-hydrazino-3-oxopropyl)-N,N-dimethyl-2-phenyl-2,5-hydro-1H-pyrrole-1-carboxamide] | ≤ 50 µM |
| CN(C)C(=O)N1CC(c2cc(F)ccc2F)=CC1(CCCN)c1ccccc1 (centres unmarked) [Compound 4-3, 2-(3-Aminopropyl)-4-(2,5-difluorophenyl)-N,N-dimethyl-2-phenyl-2,5-dihydro-1H-pyrrole-1-carboxamide] | ≤ 50 µM |
| CN(C)C(=O)N1CC(c2cc(F)ccc2F)=CC1(CO)c1ccccc1 (centres unmarked) [Compound 1-9, 4-(2,5-Difluorophenyl)-2-(hydroxymethyl)-N,N-dimethyl-2-phenyl-2,5-dihydro-1H-pyrrole-1-carboxamide] | ≤ 50 µM |
| CN(C)CCCC1(c2ccccc2)C=C(c2cc(F)ccc2F)CN1C(=O)C(C)(C)O (centres unmarked) [Compound 29-3, 1-{4-(2,5-difluorophenyl)-2-[3-(dimethylamino)propyl]-2-phenyl-2,5-dihydro-1-pyrrol-1-yl}-2-methyl-1-oxopropan-2-ol] | ≤ 50 µM |
| CN(C(=O)N1CC(c2cc(F)ccc2F)=CC1(CO[Si](C)(C)C(C)(C)C)c1ccccc1)C1CCN(CC(=O)OCc2ccccc2)CC1 (centres unmarked) [Compound 16-1] | ≤ 50 µM |
| CN(C)C(=O)N1CC(c2cc(F)ccc2F)=CC1(COCCN)c1ccccc1 (centres unmarked) [Compound 2-3, 2-[(2-Aminoethoxy)methyl]-4-(2,5-difluorophenyl)-N,N-dimethyl-2-phenyl-2,5-dihydro-1H-pyrrole-1-carboxamide] | ≤ 50 µM |
| CN(C)C(=O)N1CC(c2cc(F)ccc2F)=CC1(CCCO)c1ccccc1 (centres unmarked) [Compound 4-1a, 2-(3-Hydroxypropyl)-4-(2,5-difluorophenyl)-N,N-dimethyl-2-phenyl-2,5-dihydro-1H-pyrrole-1-carboxamide] | ≤ 50 µM |
| COCC1(c2ccccc2)C=C(c2cc(F)ccc2F)CN1C(=O)N(C)C1CCN(C)CC1 (centres unmarked) [Compound 18-2, 4-(2,5-difluorophenyl)-2-(methoxymethyl)-N-methyl-N-(1-methylpiperidin-4-yl)-2-phenyl-2,5-dihydro-1H-pyrrole-1-carboxamide] | ≤ 50 µM |
| CN(C(=O)N1CC(c2cc(F)ccc2F)=CC1(CO)c1ccccc1)C1CCN(CC(F)F)CC1 (centres unmarked) [Compound 10-1, N-[1-(2,2-difluoroethyl)piperidin-4-yl]-4-(2,5-difluorophenyl)-2-(hydroxymethyl)-N-methyl-2-phenyl-2,5-dihydro-1H-pyrrole-1-carboxamide] | ≤ 50 µM |
| CN(C)CCCC1(c2ccccc2)C=C(c2cc(F)ccc2F)CN1C(=O)N(C)C (centres unmarked) [Compound 4-4, 4-(2,5-Difluorophenyl)-2-[3-(dimethylamino)propyl]-N,N-dimethyl-2-phenyl-2,5-dihydro-1H-pyrrole-1-carboxamide] | ≤ 50 µM |
| COCC1(c2ccccc2)C=C(c2cc(F)ccc2F)CN1C(=O)N(C)C (centres unmarked) [Compound 2-1, 4-(2,5-Difluorophenyl)-2-(methoxymethyl)-N,N-dimethyl-2-phenyl-2,5-dihydro-1H-pyrrole-1-carboxamide] | ≤ 50 µM |
| CN(C)C(=O)N1CC(c2cc(F)ccc2F)=C[C@@]1(CCC(N)C(F)F)c1ccccc1 (stereo partly drawn) [Compound 31-3, (2S)-2-(3-amino-4,4-difluorobutyl)-4-(2,5-difluorophenyl)-N,N-dimethyl-2-phenyl-2,5-dihydro-1H-pyrrole-1-carboxamide] | ≤ 50 µM |
| CN(C(=O)N1CC(c2cc(F)ccc2F)=C[C@@]1(CO)c1ccccc1)C1CCN(C2CC2)CC1 [Compound 15-1, (2S)-N-(1-cyclopropylpiperidin-4-yl)-4-(2,5-difluorophenyl)-2-(hydroxymethyl)-N-methyl-2-phenyl-2,5-dihydro-1H-pyrrole-1-carboxamide] | ≤ 50 µM |
| CN(C)C(=O)N1CC(c2cc(F)ccc2F)=CC1(CCC(=O)Nc1ccccc1)c1ccccc1 (centres unmarked) [Compound 24-2, 2-(3-anilino-3-oxopropyl)-4-(2,5-difluorophenyl)-N,N-dimethyl-2-phenyl-2,5-dihydro-1H-pyrrole-1-carboxamide] | ≤ 50 µM |
| CN(C)CCCC1(c2ccccc2)C=C(c2cc(F)ccc2F)CN1C(=O)N(C)C1CCOCC1 (centres unmarked) [Compound 28-3, 4-(2,5-difluorophenyl)-2-[3-(dimethylamino)propyl]-N-methyl-2-phenyl-N-tetrahydro-2H-pyran-4-yl-2,5-dihydro-1H-pyrrole-1-carboxamide] | ≤ 50 µM |
| CN1CCC(N(C)C(=O)N2CC(c3cc(F)ccc3F)=C[C@@]2(CO)c2ccccc2)CC1 (stereo in doubt) [Compound 1-10, 4-(2,5-Difluorophenyl)-2-(hydroxymethyl)-N-methyl-N-(1-methylpiperidin-4-yl)-2-phenyl-2,5-dihydro-1H-pyrrole-1-carboxamide] | ≤ 50 µM |
| CN(C)C(=O)N1CC(c2cc(Cl)ccc2F)=CC1(CCCNC(N)=O)c1ccccc1 (centres unmarked) [Compound 23-1, 2-{3-[(aminocarbonyl)amino]propyl}-4-(5-chloro-2-fluorophenyl)-N,N-dimethyl-2-phenyl-2,5-dihydro-1H-pyrrole-1-carboxamide] | ≤ 50 µM |
| CN(C)C(=O)N1CC(c2cc(F)ccc2F)=CC1(COCCO)c1ccccc1 (centres unmarked) [Compound 2-2, 4-(2,5-Difluorophenyl)-2-[(2-hydroxyethoxy)methyl]-N,N-dimethyl-2-phenyl-2,5-dihydro-1H-pyrrole-1-carboxamide] | ≤ 50 µM |
| CN(C(=O)N1CC(c2cc(F)ccc2F)=CC1(CO)c1ccccc1)C1CCN(C(CF)CF)CC1 (centres unmarked) [Compound 14-1] | ≤ 50 µM |
| CN(C)C(=O)N1CC(c2cc(Cl)ccc2F)=CC1(CCCNS(C)(=O)=O)c1ccccc1 (centres unmarked) [Compound 21-1, 4-(5-chloro-2-fluorophenyl)-N,N-dimethyl-2-{3-[(methylsulfonyl)amino]propyl}-2-phenyl-2,5-dihydro-1H-pyrrole-1-carboxamide] | ≤ 50 µM |
| CN(C(=O)N1CC(c2cc(F)ccc2F)=CC1(CO)c1ccccc1)C1CCN(CS(C)(=O)=O)CC1 (centres unmarked) [Compound 13-1, 4-(2,5-difluorophenyl)-2-(hydroxymethyl)-N-methyl-N-{1-[(methylsulfonyl)methyl]piperidin-4-yl}-2-phenyl-2,5-dihydro-1H-pyrrole-1-carboxamide] | ≤ 50 µM |
| CN(C(=O)N1CC(c2cc(F)ccc2F)=CC1(CO)c1ccccc1)C1CCN(CCO)CC1 (centres unmarked) [Compound 11-1, 4-(2,5-difluorophenyl)-N-[1-(2-hydroxyethyl)piperidin-4-yl]-2-(hydroxymethyl)-N-methyl-2-phenyl-2,5-dihydro-1H-pyrrole-1-carboxamide] | ≤ 50 µM |
